Results: ChEMBL document CHEMBL1201862, “PubChem BioAssay data set” (2004)
Calls of active or inactive are those of the source.

What was measured:
[1] = biological target: Intestinal-type alkaline phosphatase (Mus musculus, UniProt P24822); test: PubChem AID 488875; assay type: functional
[2] = biological target: T1, Intestinal-type alkaline phosphatase (Homo sapiens, UniProt P09923); test: human intestinal alkaline phosphatase activators, dose response, biochemical, luminescence, uHTS hits (AID 463120); assay type: functional
T1 sequence (P09923 whole entry): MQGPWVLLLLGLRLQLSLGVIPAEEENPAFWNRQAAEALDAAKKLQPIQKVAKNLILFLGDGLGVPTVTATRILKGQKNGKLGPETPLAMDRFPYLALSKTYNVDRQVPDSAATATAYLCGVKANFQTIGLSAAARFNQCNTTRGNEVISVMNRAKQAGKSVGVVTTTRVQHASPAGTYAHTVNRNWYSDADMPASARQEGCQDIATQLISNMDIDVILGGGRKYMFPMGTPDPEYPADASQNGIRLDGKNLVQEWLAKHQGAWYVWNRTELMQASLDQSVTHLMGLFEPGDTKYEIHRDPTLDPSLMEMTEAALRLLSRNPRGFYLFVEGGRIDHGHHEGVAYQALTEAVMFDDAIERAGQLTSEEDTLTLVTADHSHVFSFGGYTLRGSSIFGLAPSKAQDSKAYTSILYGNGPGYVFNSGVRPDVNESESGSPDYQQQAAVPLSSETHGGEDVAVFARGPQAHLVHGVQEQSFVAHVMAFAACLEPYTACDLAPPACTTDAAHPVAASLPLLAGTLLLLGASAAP

[3] = biological target: T1, Intestinal-type alkaline phosphatase; test: human IAP activators, dose response, biochemical, luminescent, uHTS hits, set 2 (AID 488817); assay type: functional;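 further: potency of activators that raise enzyme activity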
[4] = biological target: T2, Alkaline phosphatase, tissue-nonspecific isozyme (Homo sapiens, UniProt P05186); test: TNAP enzyme activators, dose response, selectivity assay for human IAP activator project, biochemical, TNAP isozyme, human IAP uHTS hits (AID 488886); assay type: functional;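 further: potency of compounds raising TNAP activity as a selectivity check on IAP activators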
T2 sequence (P05186 whole entry): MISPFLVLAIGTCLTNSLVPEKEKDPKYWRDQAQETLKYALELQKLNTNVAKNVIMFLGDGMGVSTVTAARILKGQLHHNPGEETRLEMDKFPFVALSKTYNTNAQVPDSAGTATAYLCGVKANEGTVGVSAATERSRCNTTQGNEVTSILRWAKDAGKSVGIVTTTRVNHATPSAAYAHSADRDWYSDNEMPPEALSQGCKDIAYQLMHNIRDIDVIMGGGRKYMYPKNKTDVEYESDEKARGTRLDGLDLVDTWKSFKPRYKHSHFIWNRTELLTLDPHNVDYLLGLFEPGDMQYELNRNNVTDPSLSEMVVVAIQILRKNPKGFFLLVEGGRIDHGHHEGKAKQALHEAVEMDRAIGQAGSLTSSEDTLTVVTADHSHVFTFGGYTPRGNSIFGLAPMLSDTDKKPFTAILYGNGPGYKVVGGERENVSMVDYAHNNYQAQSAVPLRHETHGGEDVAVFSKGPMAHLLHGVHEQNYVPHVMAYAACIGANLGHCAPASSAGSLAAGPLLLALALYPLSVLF

INS1 = test: beta cell apoptosis inhibitors, cytokine rescue, dose response, luminescence, retest (AID 449756); assay type: functional, cell-based; settings: Rattus norvegicus;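 further: cell death triggered by IL-1 beta plus TNF-alpha plus IFN-gamma mixture; protective hits raise ATP signal compared with cytokine alone wells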
[5] = biological target: T3, G-protein coupled receptor 35 (Homo sapiens, UniProt Q9HC97); test: GPR35 antagonists blocking zaprinast-driven arrestin recruitment, primary screen, imaging, U2OS, beta-arrestin-GFP, zaprinast agonist (AID 2058); assay type: functional;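 further: antagonist potency meaning inhibition of agonist-induced arrestin redistribution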
T3 sequence (Q9HC97 whole entry): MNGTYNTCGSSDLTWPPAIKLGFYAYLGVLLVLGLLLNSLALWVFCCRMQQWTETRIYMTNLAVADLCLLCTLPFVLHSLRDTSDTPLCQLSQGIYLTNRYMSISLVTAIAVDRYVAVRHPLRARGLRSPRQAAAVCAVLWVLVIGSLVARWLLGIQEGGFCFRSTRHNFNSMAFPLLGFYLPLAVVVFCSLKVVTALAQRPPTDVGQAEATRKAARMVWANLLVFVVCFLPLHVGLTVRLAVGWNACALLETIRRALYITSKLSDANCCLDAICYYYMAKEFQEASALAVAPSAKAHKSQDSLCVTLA

[6] = inhibitors of firefly luciferase expression or activity, dose response, H4 neuroglioma cells, luminescence (AID 1990); assay type: functional, cell-based
[7] = biological target: T3, G-protein coupled receptor 35; test: SAR Analysis for the identification of Selective Antagonists of ERK1/2 Activity in GPR35-Overexpressing U2OS Cells. [Related pubchem assays: 2079, 2058 ]; assay type: functional, cell-based
[8] = Luminescence Cell-Based Dose Response HTS to Identify Inhibitors of 5'UTR Stem-Loop Driven Prion Protein mRNA Translation in H4 Neuroglioblastoma Cells. [Related pubchem assays: 1827 (Project Summary), 1813 (Primary HTS)]; assay type: functional
[9] = inhibitors of SNCA 5'UTR-driven reporter translation, confirmation, H4 neuroglioma cells, luminescence (AID 1988); assay type: functional, cell-based
[10] = biological target: Tyrosine-protein phosphatase non-receptor type 12 (Homo sapiens, UniProt Q05209); test: SAR Selectivity Analysis of small molecule inhibitors of PEST using pCAP in a fluorescence assay. [Related pubchem assays (depositor defined):AID1779, AID1784, AID2135]; assay type: functional
[11] = biological target: T4, Tyrosine-protein phosphatase non-receptor type 22 (Homo sapiens, UniProt Q9Y2R2); test: SAR LYP1 Fluorescent Assay using OMFP substrate for In Vitro dose response studies - Set 3. [Related pubchem assays (depositor defined):AID1779, AID1784, AID2140, AID2686]; assay type: functional
T4 sequence (Q9Y2R2 whole entry): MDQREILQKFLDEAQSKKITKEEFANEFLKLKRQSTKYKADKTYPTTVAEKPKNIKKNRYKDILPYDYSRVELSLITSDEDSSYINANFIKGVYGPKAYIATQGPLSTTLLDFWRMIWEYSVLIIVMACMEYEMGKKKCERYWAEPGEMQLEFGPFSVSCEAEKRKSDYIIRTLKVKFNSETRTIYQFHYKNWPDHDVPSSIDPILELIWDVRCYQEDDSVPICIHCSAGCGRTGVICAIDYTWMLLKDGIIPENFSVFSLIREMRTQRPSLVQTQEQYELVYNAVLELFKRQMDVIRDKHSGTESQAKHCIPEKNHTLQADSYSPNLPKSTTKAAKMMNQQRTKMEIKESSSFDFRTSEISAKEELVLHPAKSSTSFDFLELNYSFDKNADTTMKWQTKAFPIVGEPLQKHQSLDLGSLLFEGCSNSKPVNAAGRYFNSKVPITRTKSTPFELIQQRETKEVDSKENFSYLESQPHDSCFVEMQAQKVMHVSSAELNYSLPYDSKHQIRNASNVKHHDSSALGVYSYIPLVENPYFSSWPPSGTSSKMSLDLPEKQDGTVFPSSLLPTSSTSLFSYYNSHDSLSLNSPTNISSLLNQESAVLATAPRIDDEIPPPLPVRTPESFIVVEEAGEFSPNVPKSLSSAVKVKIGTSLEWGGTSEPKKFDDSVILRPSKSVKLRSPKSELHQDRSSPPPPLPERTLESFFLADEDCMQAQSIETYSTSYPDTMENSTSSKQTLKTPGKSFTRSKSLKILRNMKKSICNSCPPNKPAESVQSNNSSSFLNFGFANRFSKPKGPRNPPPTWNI

[12] = biological target: T5, Tyrosine-protein phosphatase non-receptor type 7 (Homo sapiens, UniProt P35236); test: HePTP (PTPN7) phosphatase inhibitor potency, SAR follow-up, biochemical, set 2 (AID 449736); assay type: functional
T5 sequence (P35236 whole entry): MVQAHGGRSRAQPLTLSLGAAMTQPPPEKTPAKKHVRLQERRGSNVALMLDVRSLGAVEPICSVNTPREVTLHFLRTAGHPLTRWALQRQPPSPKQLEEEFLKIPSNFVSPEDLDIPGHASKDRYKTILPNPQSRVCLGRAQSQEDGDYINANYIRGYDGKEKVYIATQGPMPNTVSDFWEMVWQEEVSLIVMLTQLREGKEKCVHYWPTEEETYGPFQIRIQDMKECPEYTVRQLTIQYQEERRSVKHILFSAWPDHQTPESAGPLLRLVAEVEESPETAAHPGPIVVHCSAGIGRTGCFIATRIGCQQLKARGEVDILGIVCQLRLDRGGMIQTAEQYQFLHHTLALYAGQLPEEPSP

[13] = biological target: T4, Tyrosine-protein phosphatase non-receptor type 22; test: LYP (PTPN22) phosphatase inhibitor potency, SAR follow-up, biochemical, pCAP fluorogenic substrate, fluorescence, set 3 (AID 449727); assay type: functional
[14] = biological target: G-protein coupled receptor 55 (Homo sapiens, UniProt Q9Y2T6); test: GPR55 antagonists, SAR follow-up, counter-screen for GPR35 antagonist project, imaging, image-based (AID 2397); assay type: functional
G-protein coupled receptor 55, sequence (Q9Y2T6 whole entry): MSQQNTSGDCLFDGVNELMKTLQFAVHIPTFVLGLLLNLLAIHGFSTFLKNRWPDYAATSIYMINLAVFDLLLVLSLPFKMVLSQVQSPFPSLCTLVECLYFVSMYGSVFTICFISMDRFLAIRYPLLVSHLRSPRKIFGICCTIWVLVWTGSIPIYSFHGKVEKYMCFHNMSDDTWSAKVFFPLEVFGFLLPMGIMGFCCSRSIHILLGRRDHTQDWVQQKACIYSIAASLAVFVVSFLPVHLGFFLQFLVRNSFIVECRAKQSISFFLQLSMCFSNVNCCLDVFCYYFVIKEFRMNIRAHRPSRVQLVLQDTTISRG

[15] = biological target: Potassium voltage-gated channel subfamily KQT member 2 (Rattus norvegicus, UniProt O88943); test: KCNQ2 channel activators, analog series, SAR follow-up, automated patch clamp, KCNQ2-CHO cells (AID 493113); assay type: functional
[16] = biological target: Sphingosine 1-phosphate receptor 2 (Homo sapiens, UniProt O95136); test: Dose Response Cell Based Assay for Antagonists of the S1P2 Receptor. [Related pubchem assays: 856, 736 ]; assay type: functional
Sphingosine 1-phosphate receptor 2, sequence (O95136 whole entry): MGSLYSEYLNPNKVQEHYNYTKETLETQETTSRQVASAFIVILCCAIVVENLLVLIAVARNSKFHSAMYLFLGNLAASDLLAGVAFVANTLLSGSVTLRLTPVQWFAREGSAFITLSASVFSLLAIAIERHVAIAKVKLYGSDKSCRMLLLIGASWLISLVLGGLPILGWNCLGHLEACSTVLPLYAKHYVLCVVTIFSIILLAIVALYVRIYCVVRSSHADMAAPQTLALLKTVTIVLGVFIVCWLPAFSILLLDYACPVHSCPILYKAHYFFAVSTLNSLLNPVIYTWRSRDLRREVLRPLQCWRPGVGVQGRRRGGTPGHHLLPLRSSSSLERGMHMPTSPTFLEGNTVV

Bcl-2-like protein 10 = Bcl-2-like protein 10 (Homo sapiens, UniProt Q9HD36); test: displacers of TR3 peptide from Bcl-B, primary screen, selectivity assay for Bfl-1 inhibitor project, biochemical, fluorescence polarization, FITC-TR3 peptide (AID 748);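 further: fluorescence polarization from a fluorescein-labelled TR3 peptide binding purified Bcl-B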
Bcl-2-like protein 10, sequence (Q9HD36 whole entry): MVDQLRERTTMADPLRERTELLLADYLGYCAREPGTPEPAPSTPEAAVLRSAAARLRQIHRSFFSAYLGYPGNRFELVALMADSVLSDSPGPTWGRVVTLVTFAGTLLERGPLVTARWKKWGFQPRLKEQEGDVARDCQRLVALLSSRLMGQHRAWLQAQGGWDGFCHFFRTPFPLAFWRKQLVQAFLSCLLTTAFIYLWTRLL

[17] = system: Streptococcus sp. 'group A'; test: growth inhibition of control SK(-) GAS strain, dose response, counter-screen for streptokinase expression inhibitor project, luminescence, kanamycin, BacTiterGlo, confirmation (AID 1900); assay type: functional, organism-based
BJ [18] = test: cytotoxicity toward BJ-TERT fibroblasts, dose response, cell-based, RAS-independent, luminescence (AID 1933); assay type: functional; settings: Homo sapiens
Streptokinase A = biological target: T6, Streptokinase A (Streptococcus pyogenes serotype M1, UniProt P10520); test: S. pyogenes streptokinase expression inhibitors, potency, dose response, plasminogen activation absorbance, OD405 (AID 1914); assay type: functional, Streptococcus pyogenes M1 GAS;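 further: secreted streptokinase activity via plasminogen activation per viability signal from cell pellet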
T6 sequence (P10520 whole entry): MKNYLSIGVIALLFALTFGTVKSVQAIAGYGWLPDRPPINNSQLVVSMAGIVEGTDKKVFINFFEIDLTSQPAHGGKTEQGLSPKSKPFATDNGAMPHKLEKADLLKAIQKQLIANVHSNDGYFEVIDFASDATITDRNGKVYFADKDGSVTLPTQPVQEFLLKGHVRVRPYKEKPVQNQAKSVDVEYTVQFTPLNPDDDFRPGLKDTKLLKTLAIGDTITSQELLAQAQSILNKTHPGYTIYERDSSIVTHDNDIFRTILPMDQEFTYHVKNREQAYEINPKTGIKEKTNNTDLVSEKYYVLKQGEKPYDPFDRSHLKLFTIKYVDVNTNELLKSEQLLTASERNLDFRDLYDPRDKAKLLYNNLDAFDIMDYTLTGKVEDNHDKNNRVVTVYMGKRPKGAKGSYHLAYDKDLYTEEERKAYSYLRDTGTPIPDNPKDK

BJ [19] = test: cells; assay type: functional, cell-based; settings: Homo sapiens
BJ [20] = test: cytotoxicity toward BJ-TERT-LT-ST fibroblasts, dose response, cell-based, RAS-independent, luminescence (AID 1935); assay type: functional; settings: Homo sapiens;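 further: BJ fibroblasts immortalized with TERT plus LT and ST oncogenes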
[21] = cytotoxicity toward DRD oncogenic fibroblasts, dose response, cell-based, non-viral oncogenic, luminescence (AID 1934); assay type: functional; settings: Homo sapiens
Streptococcus = test: Group A Streptococcus viability loss, dose response, counter-screen for streptokinase expression inhibitor project, luminescence, BacTiterGlo (AID 1915); assay type: functional, organism-based;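 further: potency for reduction of bacterial viability or growth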
Exodeoxyribonuclease V = Exodeoxyribonuclease V (Escherichia coli (strain K12), UniProt P04993+P07648+P08394); test: E. coli RecBCD inhibitors, dose response, counter-screen for AddAB inhibitor project, absorbance, V66 E. coli, mutant T4 phage (AID 492957); assay type: functional, cell-based, Escherichia coli str. K-12 substr. MG1655
Exodeoxyribonuclease V, sequence (P04993 whole entry): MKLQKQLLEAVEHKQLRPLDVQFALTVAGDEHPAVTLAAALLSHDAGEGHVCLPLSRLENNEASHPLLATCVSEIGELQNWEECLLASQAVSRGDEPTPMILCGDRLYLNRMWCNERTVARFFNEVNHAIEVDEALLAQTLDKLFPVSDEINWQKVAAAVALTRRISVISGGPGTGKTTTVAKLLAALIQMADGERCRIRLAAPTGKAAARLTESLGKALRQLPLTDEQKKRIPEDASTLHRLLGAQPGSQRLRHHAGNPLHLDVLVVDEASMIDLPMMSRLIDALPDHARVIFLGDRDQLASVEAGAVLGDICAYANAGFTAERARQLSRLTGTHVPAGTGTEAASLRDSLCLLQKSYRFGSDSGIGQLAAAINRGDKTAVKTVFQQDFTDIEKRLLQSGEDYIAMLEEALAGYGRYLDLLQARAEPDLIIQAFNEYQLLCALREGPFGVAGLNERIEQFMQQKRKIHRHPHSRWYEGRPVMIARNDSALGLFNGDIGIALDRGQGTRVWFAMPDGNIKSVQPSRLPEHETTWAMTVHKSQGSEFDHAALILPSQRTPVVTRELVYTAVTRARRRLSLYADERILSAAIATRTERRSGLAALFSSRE
Exodeoxyribonuclease V, sequence (P07648 whole entry): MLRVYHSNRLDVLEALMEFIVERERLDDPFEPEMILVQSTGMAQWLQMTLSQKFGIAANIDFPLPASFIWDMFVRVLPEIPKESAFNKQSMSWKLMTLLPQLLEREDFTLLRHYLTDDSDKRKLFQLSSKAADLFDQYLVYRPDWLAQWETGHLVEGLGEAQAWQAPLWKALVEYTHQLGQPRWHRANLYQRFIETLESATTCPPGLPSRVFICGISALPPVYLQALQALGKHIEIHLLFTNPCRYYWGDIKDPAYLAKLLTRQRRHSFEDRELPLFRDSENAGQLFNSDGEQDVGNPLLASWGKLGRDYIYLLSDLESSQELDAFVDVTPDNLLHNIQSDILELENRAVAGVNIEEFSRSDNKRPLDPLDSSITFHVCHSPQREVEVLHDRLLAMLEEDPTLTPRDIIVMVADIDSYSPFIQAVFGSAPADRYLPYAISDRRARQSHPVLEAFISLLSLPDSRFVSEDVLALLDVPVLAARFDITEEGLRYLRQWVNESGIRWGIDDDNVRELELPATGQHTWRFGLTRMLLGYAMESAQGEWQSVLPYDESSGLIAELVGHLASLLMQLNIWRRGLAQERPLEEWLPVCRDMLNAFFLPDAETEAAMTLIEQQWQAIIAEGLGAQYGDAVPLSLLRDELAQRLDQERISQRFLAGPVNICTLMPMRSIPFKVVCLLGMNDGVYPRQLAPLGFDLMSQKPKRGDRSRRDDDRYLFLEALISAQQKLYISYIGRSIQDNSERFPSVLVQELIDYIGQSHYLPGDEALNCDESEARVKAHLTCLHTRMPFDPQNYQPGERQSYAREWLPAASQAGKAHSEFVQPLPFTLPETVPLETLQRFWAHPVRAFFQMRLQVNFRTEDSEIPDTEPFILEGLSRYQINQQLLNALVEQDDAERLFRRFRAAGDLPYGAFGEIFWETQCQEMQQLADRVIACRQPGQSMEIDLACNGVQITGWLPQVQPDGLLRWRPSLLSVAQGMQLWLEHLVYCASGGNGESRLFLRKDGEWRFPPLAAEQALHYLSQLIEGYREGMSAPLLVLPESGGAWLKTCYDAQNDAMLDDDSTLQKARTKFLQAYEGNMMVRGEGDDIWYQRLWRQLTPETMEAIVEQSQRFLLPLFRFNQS
Exodeoxyribonuclease V, sequence (P08394 whole entry): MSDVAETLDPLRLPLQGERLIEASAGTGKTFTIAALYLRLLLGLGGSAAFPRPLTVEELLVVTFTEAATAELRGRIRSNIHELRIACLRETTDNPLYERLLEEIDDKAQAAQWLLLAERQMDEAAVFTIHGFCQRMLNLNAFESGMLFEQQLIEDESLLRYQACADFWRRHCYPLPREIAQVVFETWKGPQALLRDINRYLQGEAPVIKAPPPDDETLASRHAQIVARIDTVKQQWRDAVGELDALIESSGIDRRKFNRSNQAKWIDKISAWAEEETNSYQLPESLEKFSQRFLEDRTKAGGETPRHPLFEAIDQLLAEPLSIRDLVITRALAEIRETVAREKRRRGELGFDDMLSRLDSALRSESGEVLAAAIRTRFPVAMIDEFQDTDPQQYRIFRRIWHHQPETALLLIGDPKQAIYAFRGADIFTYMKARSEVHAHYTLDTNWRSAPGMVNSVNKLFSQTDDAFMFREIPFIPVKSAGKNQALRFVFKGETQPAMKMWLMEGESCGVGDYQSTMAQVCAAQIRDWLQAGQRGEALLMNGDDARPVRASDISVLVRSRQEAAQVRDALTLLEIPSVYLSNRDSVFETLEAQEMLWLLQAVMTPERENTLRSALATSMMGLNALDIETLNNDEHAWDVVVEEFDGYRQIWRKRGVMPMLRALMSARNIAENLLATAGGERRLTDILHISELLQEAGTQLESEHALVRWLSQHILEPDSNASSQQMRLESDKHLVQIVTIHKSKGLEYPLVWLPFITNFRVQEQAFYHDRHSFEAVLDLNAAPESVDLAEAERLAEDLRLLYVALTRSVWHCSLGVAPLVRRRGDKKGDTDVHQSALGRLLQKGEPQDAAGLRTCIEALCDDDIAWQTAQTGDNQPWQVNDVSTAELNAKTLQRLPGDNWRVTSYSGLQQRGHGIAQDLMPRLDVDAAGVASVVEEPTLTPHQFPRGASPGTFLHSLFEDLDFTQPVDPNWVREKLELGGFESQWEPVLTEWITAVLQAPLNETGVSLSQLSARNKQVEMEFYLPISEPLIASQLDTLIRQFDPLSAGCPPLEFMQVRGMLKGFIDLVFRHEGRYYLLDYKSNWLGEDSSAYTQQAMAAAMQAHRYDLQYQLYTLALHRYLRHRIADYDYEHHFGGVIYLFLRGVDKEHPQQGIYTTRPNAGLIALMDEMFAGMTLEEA

[22] = Counterscreen for AddAB inhibitors: absorbance-based bacterial cell-based high throughput dose response assay for inhibitors of bacterial viability. [Related pubchem assays (depositor defined):AID435030, AID449728, AID449731, AID488942, AID488955, AID488956]; assay type: functional
Cytochrome P450 2C19 = Cytochrome P450 2C19 (Homo sapiens, UniProt P33261); test: Cytochrome panel assay with activity outcomes. Panel member name: p450-cyp2c19 Compounds with AC50 equal or less than 10 uM are considered active; assay type: functional; settings: read-out: AC50
Cytochrome P450 1A2 = biological target: T7, Cytochrome P450 1A2 (Homo sapiens, UniProt P05177);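 further: PubChem cytochrome P450 panel assay, CYP1A2 panel member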
T7 sequence (P05177 whole entry): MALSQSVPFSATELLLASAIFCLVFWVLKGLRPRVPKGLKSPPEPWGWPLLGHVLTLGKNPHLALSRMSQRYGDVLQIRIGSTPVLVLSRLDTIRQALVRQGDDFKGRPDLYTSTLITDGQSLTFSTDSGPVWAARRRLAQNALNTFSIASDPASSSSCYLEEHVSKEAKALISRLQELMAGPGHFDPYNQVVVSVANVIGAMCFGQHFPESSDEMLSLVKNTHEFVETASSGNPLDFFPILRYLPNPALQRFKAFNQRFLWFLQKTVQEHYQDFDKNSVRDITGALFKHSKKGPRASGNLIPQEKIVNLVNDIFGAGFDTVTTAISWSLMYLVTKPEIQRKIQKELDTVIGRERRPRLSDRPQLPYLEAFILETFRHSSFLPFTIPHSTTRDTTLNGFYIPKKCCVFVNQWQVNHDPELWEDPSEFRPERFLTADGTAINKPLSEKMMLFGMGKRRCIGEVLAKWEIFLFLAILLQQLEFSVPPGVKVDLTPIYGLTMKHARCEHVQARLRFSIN

Cytochrome P450 3A4 = Cytochrome P450 3A4 (Homo sapiens, UniProt P08684);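 further: CYP3A4 tested as one member of a cytochrome P450 panel screen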

Cc1ccc(O)c(/C=N/NC(=O)c2[nH]ncc2Br)c1
EC50 [1]: > 100 µM (inactive)
EC50 [2]: 7.61 µM (active)
EC50 [3]: 47.6 µM (active)
EC50 [4]: 49.6 µM (active)
AC50 (INS1): 33.5 µM (active)

O=C(CCCN1C(=O)/C(=C/c2ccc3c(c2)OCO3)SC1=S)Nc1cccc(C(=O)O)c1
IC50 [5]: 0.803 µM (active)
EC50 [6]: 10.2 µM (active)
IC50 [7]: 1.89 µM (active)
EC50 [8]: 17.5 µM (active)
EC50 [9]: > 120 µM (not active)
IC50 [10]: 37.4 µM (active)
IC50 [11]: > 100 µM (inactive)
IC50 [12]: 2.47 µM (active)
IC50 [13]: 62.7 µM (active)
IC50 [14]: > 32 µM (inactive)

O=C(Nc1ccc2ccccc2c1)C1CC2CCC1C2 (stereo unspecified)
EC50 [15]: 0.6 µM (active)

Cc1ccc(-[n+]2c(-c3ccc(Br)cc3)cn3c2CCc2ccc4cccnc4c2-3)cc1
IC50 [16]: 4.28 µM (active)
IC50 (Bcl-2-like protein 10): 41.4 µM (active)
EC50 [17]: 6.51 µM (active)
EC50 (BJ [18]): 0.649 µM (inconclusive)
EC50 (Streptokinase A): 6.5 µM (active)
EC50 (BJ [19]): 1.69 µM (inconclusive)
EC50 (BJ [20]): 2.98 µM (inconclusive)
EC50 [21]: 3.51 µM (active)
EC50 (Streptococcus): > 50 µM (not active)
IC50 (Exodeoxyribonuclease V): 28.4 µM (inactive)
IC50 [22]: 16.9 µM (inactive)
AC50 (Cytochrome P450 2C19): 28.2 µM (inconclusive)
AC50 (INS1): 0.412 µM (active)
AC50 (Cytochrome P450 1A2): 25.1 µM (inconclusive)
AC50 (Cytochrome P450 3A4): 4.47 µM (inconclusive)
